What was measured:
Assay type in all cases: biochemical
[1] = test system: PKC from rat brain (PKC-rb); experiment: Serine/threonine phosphorylation of rIRS-1^449-664 by PKC from rat brain ([32P]ATP, autoradiography); conditions: 0.5 μg PKC-rb, 1 μg rIRS-1^449-664, 50 μM ATP
Description: For rIRS-1^449-664 phosphorylation by insulin receptor, […] of the WGA-purified glycoprotein fraction was preincubated for 30 min at 30° C. with 100 nM of insulin in a phosphorylation buffer containing 20 mM Hepes (pH 7.4), 1 mM DTT, 10 mM MgCl2, 100 μg/ml bovine serum albumin, 0.2 mM Na3VO4, 1.7 mM CaCl2, 0.6 mg/ml phosphatidylserine, and 0.5 μg/ml okadaic acid. Autophosphorylation was initiated by the addition of ATP at a concentration of 50 μM and continued for 10 min at 30° C. Substrate phosphorylations were initiated by addition of equal volumes of […] (1 μg) with or without pre-treatment (30 min) by the PKC isoforms in the same buffer in the presence of 50 μM ATP and was allowed to proceed for 10 min at 30° C. in a final volume of 50 μl. […] Proteins were separated by SDS-PAGE and analyzed by immunodetection with an anti-phosphotyrosine antibody after transfer to nitrocellulose. Serine/threonine phosphorylation of rIRS-1^449-664 by different PKC isoforms was assessed by incubating 1 μg rIRS-1^449-664 with 0.5 μg PKC-rb or PKC-ζ in phosphorylation buffer for 30 min at 30° C. in the presence of 50 μM ATP plus 2 μCi [γ-^32P]ATP in a volume of 20 μl. […] The extent of phosphate incorporation was determined by Cerenkov counting of excised fragments. […]

[2] = biological target: T1, insulin receptor (Rattus norvegicus, UniProt P15127); experiment: In vitro phosphorylation assay: tyrosine phosphorylation of rIRS-1^449-664 by insulin receptor; conditions: BIM added for 10 min before substrate phosphorylation by IR
T1 construct: from tissue; host or cells: rat liver
T1 sequence (P15127 27-759 limits assumed): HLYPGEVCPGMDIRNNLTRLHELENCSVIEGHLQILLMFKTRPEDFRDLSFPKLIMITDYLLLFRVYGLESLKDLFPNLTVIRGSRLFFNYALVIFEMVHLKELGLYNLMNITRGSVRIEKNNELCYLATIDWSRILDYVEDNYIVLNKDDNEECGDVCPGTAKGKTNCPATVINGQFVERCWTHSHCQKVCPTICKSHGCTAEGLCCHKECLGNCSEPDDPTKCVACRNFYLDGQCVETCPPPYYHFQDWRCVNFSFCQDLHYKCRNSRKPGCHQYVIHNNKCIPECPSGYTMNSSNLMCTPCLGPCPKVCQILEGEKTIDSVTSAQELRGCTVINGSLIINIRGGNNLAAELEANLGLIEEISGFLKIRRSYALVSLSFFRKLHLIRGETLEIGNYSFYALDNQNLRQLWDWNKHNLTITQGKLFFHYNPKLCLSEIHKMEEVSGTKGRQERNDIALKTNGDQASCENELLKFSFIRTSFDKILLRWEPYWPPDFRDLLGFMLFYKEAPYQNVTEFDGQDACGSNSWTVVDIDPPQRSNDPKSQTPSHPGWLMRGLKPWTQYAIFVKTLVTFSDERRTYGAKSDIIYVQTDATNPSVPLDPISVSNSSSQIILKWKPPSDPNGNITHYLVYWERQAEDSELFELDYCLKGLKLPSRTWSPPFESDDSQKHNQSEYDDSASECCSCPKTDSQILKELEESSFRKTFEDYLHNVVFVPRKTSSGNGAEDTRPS
Description: Rat liver was rapidly removed, immediately frozen in liquid nitrogen and processed as described (41). Briefly, 3.5 vol/wt of an ice-cold buffer consisting of 50 mM Hepes (pH 7.4), 1% Triton X-100 and 2× Complete Protease Inhibitors was added and the liver was homogenized using an Ultraturrax and a Potter-Elvehjem homogenizer, followed by centrifugation at 10,000×g for 10 min at 4° C. The resultant supernatant was slowly stirred at room temperature for 60 min, then again centrifuged at 100,000×g for 90 min at 4° C. The supernatant was then applied to an agarose-bound wheat germ agglutinin (WGA) column. The column was washed with 50 mM Hepes (pH 7.4), 0.1% Triton X-100, and bound glycoproteins were eluted from the WGA column with this buffer containing 0.3 M N-acetylglucoseamine.
For rIRS-1^449-664 phosphorylation by insulin receptor, […] of the WGA-purified glycoprotein fraction was preincubated for 30 min at 30° C. with 100 nM of insulin in a phosphorylation buffer containing 20 mM Hepes (pH 7.4), 1 mM DTT, 10 mM MgCl2, 100 μg/ml bovine serum albumin, 0.2 mM Na3VO4, 1.7 mM CaCl2, 0.6 mg/ml phosphatidylserine, and 0.5 μg/ml okadaic acid. Autophosphorylation was initiated by the addition of ATP at a concentration of 50 μM and continued for 10 min at 30° C. Substrate phosphorylations were initiated by addition of equal volumes of […] (1 μg) with or without pre-treatment (30 min) by the PKC isoforms in the same buffer in the presence of 50 μM ATP and was allowed to proceed for 10 min at 30° C. in a final volume of 50 μl. The reaction was terminated by the addition of 6× sample buffer (0.35 M Tris-HCl (pH 6.8), 10.28% (w/v) SDS, 36% (v/v) glycerol; 0.6 M DTT, 0.012% (w/v) bromphenol blue) and boiling for 5 min. Proteins were separated by SDS-PAGE and analyzed by immunodetection with an anti-phosphotyrosine antibody after transfer to nitrocellulose. Serine/threonine phosphorylation of rIRS-1^449-664 by different PKC isoforms was assessed by incubating 1 μg rIRS-1^449-664 with 0.5 μg PKC-rb or PKC-ζ in phosphorylation buffer for 30 min at 30° C. in the presence of 50 μM ATP plus 2 μCi [γ-^32P]ATP in a volume of 20 μl. Proteins were resolved by SDS-PAGE and the stained and dried gels were subjected to autoradiography. The extent of phosphate incorporation was determined by Cerenkov counting of excised fragments.
Proteins were separated by SDS-PAGE using 8-18% gradient gels followed by transfer to nitrocellulose in a semi-dry blotting apparatus. […] All blots were quantified using the Lumilmager software. Significance of reported differences was evaluated by using the null hypothesis and t statistics for unpaired data. […]

[3] = test system: PKC; experiment: Phosphorylation of IRS-1 serine 612 by PKC, immunoblot with phosphoserine 612 antibody; conditions: PKC from rat brain and PKC-ζ, 30 min at 30° C.
Description: (A) 0.5 μg of rIRS-1^449-664 was incubated with 0.5 μg of the different PKCs for 30 min at 30° C. and immunoblotted with an antibody against phosphoserine 612. A representative experiment is shown. (B) Binding of p85α to immobilized peptides corresponding to the IRS-1 amino acids 605 to 615 with phosphotyrosine 608 or (C) without phosphotyrosine using surface plasmon resonance (pY608 -DDGpYMPMSPGV and Y608 -DDGYMPMSPGV). Protein concentrations of p85α used were (from bottom to top): 1, 5,10, 25, 50,100, 250, 500 nM. (D) Inhibition of p85α binding by competition with soluble peptides pY608-DDGpYMPMSPGV or (E) pY608-pS612-DDGpYMPMpSPGV. The soluble peptides were also immobilized on the chip. (F) Half-maximum inhibitory concentrations (IC50) were obtained by plotting the SPR response at equilibrium (440 s after injection) versus the log peptide concentration.
The inventors assessed modification of this site by PKC using a specific IRS-1 phosphoserine 612 antibody (αpS^612).

CN(C)CCCn1cc(C2=C(c3c[nH]c4ccccc34)C(=O)NC2=O)c2ccccc21 [BIM, bisindolylmaleimide I]
Phosphorylation of rIRS-1^449-664 by PKC-rb in the presence of inhibitor [1]: inhibited
Effect of inhibiting PKC-rb after phosphorylation of rIRS-1^449-664 on the reduced tyrosine phosphorylation and p85α association [2]: did not modify this result
Phosphorylation of serine 612 of rIRS-1^449-664 by PKC in the presence of inhibitor [3]: clearly prevented the phosphorylation of this serine
